From patent US6294526A, “Use of flavone derivatives for induction of β-lactam-sensitivity of MRSA” (priority 1998, dated 2001)
Values after ≈ are worked out from the molar mass of the structure shown. Read-outs that look alike come from different tables or passages of the source.

Assays:
MRSA [1] = experiment: antibacterial activity (MIC) by agar plate dilution method, MRSA strains; type: cell-based, methicillin-resistant Staphylococcus aureus; settings: Staphylococcus aureus, 20 h; for MIC: range over strains
Method: (§1) The screening of the present invention may be carried out according to the agar plate dilution method designated by the Japan Society of Chemotherapy (Chemotherapy 29(1), 76-79 (1981)). Mueller-Hinton agar base semi-synthetic medium may be used for a plate culture medium for a sensitivity test together with an inoculating bacteria solution which may be prepared by culturing bacteria to be tested at 37° C. for 20 hours diluted with 8.5% by isotonic sodium chloride solution to 10^6 CFU/ml. Diluted β-lactam solutions are prepared by two times serial dilution. 1 ml of the diluted β-lactam solution and 1 ml of a predetermined concentration of a sample to be tested are added to 8 ml of the plate culture medium for a sensitivity test. To the resultant plate culture medium for sensitivity test, the bacteria are inoculated using a microplanter (SAKUMASEISAKUSYO Co.), cultured for 20 hours at 37° C. followed by assessing for a minimum inhibition concentration (MIC).
(§2) (A) Antibacterial activities of ether extract from Scutellaria barbata, SB-1 (isolated from Scutellaria barbata), apigenin (authentic sample) and luteolin (authentic sample) were shown in Table 1.
(§3) Flavones were dissolved in methanol and the others were dissolved in 0.1 N NaOH. A method for determination of antibacterial activity is, as described above, an agar plate dilution method designated by the Japan Society of Chemotherapy (Chemotherapy 29(1), 76-79 (1981)) to determine MIC value. MIC80 is a concentration at which a strain is prohibited to proliferate by 80% and MIC50 is a concentration at which a strain is prohibited to proliferate by 50%.

MSSA = experiment: antibacterial activity (MIC) by agar plate dilution method, MSSA strains; type: cell-based, Methicillin-sensitive Staphylooccus aureus; settings: Staphylococcus aureus, 20 h; for MIC: range over strains
Method: as §1, §2, §3

MRSA [2] = experiment: antibacterial activity of antibiotics alone and in the presence of apigenin (4 μg/ml), MRSA; type: cell-based, methicillin-resistant Staphylococcus aureus; settings: for MIC / MIC50: MRSA
Method: as §1
(D) Then use of 4 μg/ml of apigenin and other antibiotics at the same time was studied. The antibiotics are penicillin , ampicillin, cephalothin, cefoxitin, cefuroxime, cefotaxime, vancomycin, streptomycin, chloramphenicol, kanamycin, erythromycin, nalixic acid and tetracycline.

MRSA No. 5 = experiment: effect of flavone on antibacterial activity of antibiotics against MRSA No. 5 in bouillon (broth microdilution); type: cell-based, methicillin-resistant Staphylococcus aureus; settings: for MIC: Staphylococcus aureus, MRSA, 20 h, read-out: MIC; for inhibitory effect on resistance of MRSA No.5 (in words): in the presence of flavone 0.5 mM
Method: Alternatively, the screening of the present invention may be carried out according to the broth microdilution method designated by the Japan Society of Chemotherapy (Chemotherapy 38(1), 102-105 (1990)). Muellar-Hinton broth is used as a culture medium for the sensitivity test, and 50 mg/ml of calcium(Ca) ion, 25 mg/ml of magnesium(Mg) ion, and 2% sodium chloride (NaCl) are added thereto. An inoculating bacteria solution may be prepared by culturing bacteria to be tested in Mueller-Hinton broth at 37° C. for 20 hours and diluting with Mueller-Hinton broth to 10^5 CFU/ml final concentration of inoculating bacteria. Diluted β-lactam solution is prepared by two times serial dilution series. 10 μl of the diluted β-lactam solution and 10 μl of a predetermined concentration of a sample of bacteria to be tested are added to mix with 80 μl of the culture medium for the sensitivity test. To the resultant plate culture medium for sensitivity test, the inoculating bacteria are added and culturing is carried out for 20 hours at 37° C. and then assessment for a minimum inhibition concentration (MIC) is carried out. A minimum inhibition concentration means the minimum concentration of β-lactam at which growth of bacteria is not recognized by the naked eye.
(G) Antibacterial activity of 6 β-lactams, that is, cephalothin, cefuroxime, cefotaxime, cefoxitin, streptomycin and vancomycin, against MRSA in the presence of 0.5 mM flavone was studied in bouillon.
Muellar-Hinton broth was used as a culture medium for the sensitivity test, and 50 mg/ml of calcium (Ca) ion, 25 mg/ml of maqnesium (Mg) ion, 2% sodium chloride (NaCl) were added thereto. An inoculating bacteria solution was prepared by culturing bacteria to be tested with Mueller-Hinton broth at 37° C. for 20 hours and diluting with Mueller-Hinton broth to 10^5 CFU/ml final concentration of inoculating bacteria. Diluted β-lactam solutions were prepared in two times serial dilutions starting from 10 mM. Ten microliters of the diluted β-lactam solution and 10 μl of 5 mM of flavone were mixed with 80 μl of the culture medium for the sensitivity test in a microplate having U-shaped wells and samples of bacteria to be tested were added thereto. The mixture was cultured 20 hours at 37° C. and then assessed for minimum inhibition concentration (MIC). Minimum inhibition concentration means minimum concentration of a β-lactum at which growth of bacteria is inhibited to the extent that bacteria is not recognized by the naked eye.

[3] = MRSA (20 strains), read-out: MIC50
[4] = MRSA, MRSA (20 strains), read-out: MIC
[5] = MSSA (7 strains), read-out: MIC50
[6] = MSSA, MSSA (7 strains), read-out: MIC
[7] = Staphylococcus aureus, 20 h, Antibiotics alone, read-out: MIC50
[8] = Staphylococcus aureus, 20 h, antibiotic with Apigenin (4 μg/ml), read-out: MIC
[9] = Staphylococcus aureus, 20 h, antibiotic with Apigenin (4 μg/ml), read-out: MIC50
[10] = Concentration of flavone 0.5 mM
[11] = Staphylococcus aureus, 20 h, Antibiotics alone
[12] = Staphylococcus aureus, 20 h, antibiotic with Apigenin (4 μg/ml)

Oc1cc(O)c2c(c1)O[C@H](c1ccc(O)c(O)c1)[C@@H](O)C2 [(+)-Catechin, (+)-catechin]
MIC50 (MRSA [1]; [3]): > 250 µg/mL | MIC (MRSA [1]; [4]): > 250 µg/mL | MIC50 (MSSA; [5]): > 250 µg/mL | MIC (MSSA; [6]): > 250 µg/mL

COc1ccc(-c2cc(=O)c3c(O)cc(O)cc3o2)cc1 [Acacetin, acacetin]
MIC50 (MRSA [1]; [3]): > 250 µg/mL | MIC (MRSA [1]; [4]): > 250 µg/mL | MIC50 (MSSA; [5]): > 250 µg/mL | MIC (MSSA; [6]): > 250 µg/mL

CC1(C)S[C@@H]2[C@H](NC(=O)[C@H](N)c3ccccc3)C(=O)N2[C@H]1C(=O)O [Ampicillin, ampicillin]
MIC (MRSA [2]; Staphylococcus aureus, 20 h, Antibiotics alone, read-out: MIC): 2 to 125 µg/mL | MIC50 (MRSA [2]; [7]): 31.3 µg/mL | MIC (MRSA [2]; [8]): 2 to 62.5 µg/mL | MIC50 (MRSA [2]; [9]): 31.3 µg/mL

O=c1cc(-c2ccccc2)oc2cc(O)c(O)c(O)c12 [Baicalein, baicalein]
MIC50 (MRSA [1]; [3]): > 250 µg/mL | MIC (MRSA [1]; [4]): > 250 µg/mL | MIC50 (MSSA; [5]): > 250 µg/mL | MIC (MSSA; [6]): > 250 µg/mL

CO/N=C(\C(=O)N[C@@H]1C(=O)N2C(C(=O)O)=C(COC(C)=O)CS[C@H]12)c1csc(N)n1 [Cefotaxime, cefotaxime]
MIC50 (MRSA [2]; [7]): > 250 µg/mL | MIC50 (MRSA [2]; [9]): > 250 µg/mL | MIC (MRSA No. 5; Concentration of flavone 0 mM): 1000 µM (≈ 455 µg/mL) | MIC (MRSA No. 5; [10]): 7.8 µM (≈ 3.55 µg/mL) | inhibitory effect on resistance of MRSA No.5 (in words) (MRSA No. 5): showed inhibitory effect on resistance of MRSA No.5

CO[C@@]1(NC(=O)Cc2cccs2)C(=O)N2C(C(=O)O)=C(COC(N)=O)CS[C@@H]21 [Cefoxitin, cefoxitin]
MIC50 (MRSA [2]; [7]): 250 µg/mL | MIC (MRSA [2]; [8]): 2 to 125 µg/mL | MIC50 (MRSA [2]; [9]): 31.3 µg/mL | inhibition of β-lactam resistant MRSA / improvement of antibacterial effect with apigenin (in words) (MRSA [2]; apigenin 4 μg/ml or less than its MIC): inhibited β-lactam resistant MRSA | MIC (MRSA No. 5; Concentration of flavone 0 mM): 1000 µM (≈ 427 µg/mL) | MIC (MRSA No. 5; [10]): < 0.98 µM | inhibitory effect on resistance of MRSA No.5 (in words) (MRSA No. 5): showed the inhibitory effect remarkably

O=C(N[C@H](CO)[C@H](O)c1ccc([N+](=O)[O-])cc1)C(Cl)Cl [Chloramphenicol, chloramphenicol]
MIC (MRSA [2]; [11]): 2 to 62.5 µg/mL | MIC50 (MRSA [2]; [11]): 7.8 µg/mL | MIC (MRSA [2]; [12]): 3.9 to 31.3 µg/mL | MIC50 (MRSA [2]; [12]): 7.8 µg/mL

O=c1cc(-c2ccccc2)oc2cc(O)cc(O)c12 [Chrysin, chrysin]
MIC50 (MRSA [1]; [3]): > 250 µg/mL | MIC (MRSA [1]; [4]): > 250 µg/mL | MIC50 (MSSA; [5]): > 250 µg/mL | MIC (MSSA; [6]): > 250 µg/mL

O=c1c(-c2ccc(O)cc2)coc2cc(O)ccc12 [Daidzein, daidzein]
MIC50 (MRSA [1]; [3]): > 250 µg/mL | MIC (MRSA [1]; [4]): > 250 µg/mL | MIC50 (MSSA; [5]): > 250 µg/mL | MIC (MSSA; [6]): > 250 µg/mL

CC[C@H]1OC(=O)[C@H](C)[C@@H](O[C@H]2C[C@@](C)(OC)[C@@H](O)[C@H](C)O2)[C@H](C)[C@@H](O[C@@H]2O[C@H](C)C[C@H](N(C)C)[C@H]2O)[C@](C)(O)C[C@@H](C)C(=O)[C@H](C)[C@@H](O)[C@]1(C)O [Erythromycin, erythromycin]
MIC50 (MRSA [2]; [11]): > 250 µg/mL | MIC50 (MRSA [2]; [12]): > 250 µg/mL

COc1ccc(-c2coc3cc(O)ccc3c2=O)cc1 [Formononetin, formononetin]
MIC50 (MRSA [1]; [3]): > 250 µg/mL | MIC (MRSA [1]; [4]): > 250 µg/mL | MIC50 (MSSA; [5]): > 250 µg/mL | MIC (MSSA; [6]): > 250 µg/mL

O=c1c(-c2ccc(O)cc2)coc2cc(O)cc(O)c12 [Genistein, genistein]
MIC50 (MRSA [1]; [3]): > 250 µg/mL | MIC (MRSA [1]; [4]): > 250 µg/mL | MIC50 (MSSA; [5]): > 250 µg/mL | MIC (MSSA; [6]): > 250 µg/mL

COc1ccc([C@@H]2CC(=O)c3c(O)cc(O)cc3O2)cc1O [Hesperetin, hesperetin]
MIC50 (MRSA [1]; [3]): > 250 µg/mL | MIC (MRSA [1]; [4]): > 250 µg/mL | MIC50 (MSSA; [5]): > 250 µg/mL | MIC (MSSA; [6]): > 250 µg/mL

NC[C@H]1O[C@H](O[C@H]2[C@H](O)[C@@H](O[C@H]3O[C@H](CO)[C@@H](O)[C@H](N)[C@H]3O)[C@H](N)C[C@@H]2N)[C@H](O)[C@@H](O)[C@@H]1O [Kanamycin, kanamycin]
MIC50 (MRSA [2]; [11]): > 250 µg/mL | MIC50 (MRSA [2]; [12]): 250 µg/mL

O=C1C[C@@H](c2ccc(O)cc2)Oc2cc(O)ccc21 [Liquiritigenin, liquiritigenin]
MIC50 (MRSA [1]; MRSA): > 250 µg/mL | MIC50 (MSSA; MSSA): > 250 µg/mL

O=c1c(O)c(-c2cc(O)c(O)c(O)c2)oc2cc(O)cc(O)c12 [Myricetin, myricetin]
MIC50 (MRSA [1]; [3]): > 250 µg/mL | MIC50 (MSSA; [5]): > 250 µg/mL | MIC (MSSA; [6]): > 250 µg/mL

CCn1cc(C(=O)O)c(=O)c2ccc(C)nc21 [Nalidixic acid]
MIC50 (MRSA [2]; [11]): > 250 µg/mL | MIC50 (MRSA [2]; [12]): > 250 µg/mL

O=C1C[C@@H](c2ccc(O)cc2)Oc2cc(O)cc(O)c21 [Naringenin, naringenin]
MIC50 (MRSA [1]; [3]): > 250 µg/mL | MIC (MRSA [1]; [4]): > 250 µg/mL | MIC50 (MSSA; [5]): > 250 µg/mL | MIC (MSSA; [6]): > 250 µg/mL

CC1(C)S[C@@H]2[C@H](NC(=O)Cc3ccccc3)C(=O)N2[C@H]1C(=O)O [Penicillin G, penicillin G]
MIC (MRSA [2]; [11]): 0.49 to 125 µg/mL | MIC50 (MRSA [2]; [11]): 31.3 µg/mL | MIC (MRSA [2]; [12]): 0.49 to 62.5 µg/mL | MIC50 (MRSA [2]; [12]): 15.6 µg/mL

O=c1c(O)c(-c2ccc(O)c(O)c2)oc2cc(O)c(O)c(O)c12 [Quercetagetin, quercetagetin]
MIC50 (MRSA [1]; MRSA): > 250 µg/mL | MIC (MRSA [1]; MRSA, MRSA (20 strains)): > 250 µg/mL | MIC50 (MSSA; MSSA): > 250 µg/mL | MIC (MSSA; MSSA, MSSA (7 strains)): > 250 µg/mL

COc1cc(O)c2c(=O)c(O)c(-c3ccc(O)c(O)c3)oc2c1 [Rhamnetin, rhamnetin]
MIC50 (MRSA [1]; [3]): > 250 µg/mL | MIC (MRSA [1]; [4]): > 250 µg/mL | MIC50 (MSSA; [5]): > 250 µg/mL | MIC (MSSA; [6]): > 250 µg/mL

CN(C)C1C(=O)C(C(N)=O)=C(O)C2(O)C(=O)C3=C(O)c4c(O)cccc4C(C)(O)C3CC12 (centres unmarked) [Tetracycline, tetracycline]
MIC (MRSA [2]; Antibiotics alone): 0.24 to 250 µg/mL | MIC50 (MRSA [2]; [11]): 0.98 µg/mL | MIC (MRSA [2]; [12]): 0.49 to 250 µg/mL | MIC50 (MRSA [2]; [12]): 0.98 µg/mL
